Test results from publication PMC6274124, “Design, Synthesis and Biological Evaluation of Brain-Targeted Thiamine Disulfide Prodrugs of Ampakine Compound LCX001” (Molecules, 2016).

Assays:
[1] = tested on: respiratory depression induced by pain relieving opiates; set-up: method as in PMID 19907420; conditions: single oral dose of 1500 mg, without affecting the pain relieving effects; cited from earlier work
[2] = Metabolic stability in mice plasma extract at 37 °C; format: in vitro ADME; conditions: for half-life at 1.67 µg/mL: mouse
Protocol: (§1) To determine the plasma stability and brain stability of these prodrugs, we assayed the pharmacokinetics of the prepared compounds 7a–7f in mice plasma extract and brain homogenate at 37 °C. The pseudo-first order rate constants of disappearance (Ke) of the prodrugs and their half lives (t1/2) which were calculated by linear regression of Ln of peak area against time in minutes are listed in Table 1.
(§2) Blood was drawn from mice though the orbital sinus and was collected in a heparinized tube paved with heparin sodium. Samples were centrifuged at 10,000 rpm for 16 min to separate plasma which was diluted with four volumes of water. The brain was removed and homogenized. Samples were then placed on ice and used immediately. Ten μL acetonitrile solution (10 μg/mL) of the compound was added to 50 μL of plasma or brain homogenate and gently vortexed. Samples were incubated at 37 °C and aliquots were removed after 0, 5, 15, 30, 60 and 90 min, respectively. One hundred μL acetonitrile was added to each and vortexed. Samples were centrifuged for 10 min to remove proteins and the supernatants were analyzed by LC-MS/MS method as described.

[3] = Metabolic stability in mice brain homogenate at 37 °C; format: in vitro ADME; conditions: for half-life at 1.67 µg/mL: mouse, mouse brain homogenate
Protocol: as §1, §2

opiate poisoned mice = assay: Model of opiate-induced respiratory depression (030418-induced), mortality of mice; format: in vivo, Kunming mice; conditions: for Death Rate: 10 min before 030418 15 mg/kg sc
Protocol: To investigate the effect of 7e on opiate-induced respiratory depression, we proceeded with a preliminary pharmacodynamic study in mice. […] Varying doses of prodrug 7e were administered 10 min before 030418 administration. The effect of prodrug 7e and LCX001 on opiate-induced respiratory depression was evaluted by the mortality of mice. […] Further pharmacodynamic studies are currently underway.
A total of 80 male Kunming mice weighing 20–22 g were used in this study. Animals were fed ad libitum with a commercial rodent feed and had free access to drinking water. All animals received human care, and the study protocols complied with the guidelines of the animal center of academy of military medical sciences. Throughout the experiments, the animals were handled according to the international ethical guidelines for the care of laboratory animals.
Respiratory depression in conscious mice was induced by hypodermic (15 mg/kg) administration of 030418. Ten min prior to 030418 administration, animals were randomly assigned to the experimental groups and received an intravenous injection of either saline solution (control), LCX001 (10 mg/kg), prodrug 7e (30 mg/kg, 10 mg/kg, 3 mg/kg, 1 mg/kg or 0.5 mg/kg) (Table 4).
During the experiment, the poisoning time, poisoning symptoms and death time were recorded. The death rate (death number/sample number) was used to evaluate the effect of 7e on opiate-induced respiratory depression.

[4] = Pharmacokinetics of LCX001 in plasma after i.v. administration; format: in vivo, Kunming mice; conditions: mice
Protocol: The compounds were injected through the caudal vein of the mice with a single dose equivalent to 1 mg/kg body weight of LCX001, and then blood was collected to analyze the concentration of LCX001 at different intervals by an LC-MS/MS method.
Mice were randomly divided into two groups, 27 in each group, for different sampling times and housed in one cage. Each animal was injected with 7e or LCX001 in 20% w/v hydroxypropyl-β-cyclodextrin and saline (0.45%) solution through the tail vein at a single dose equivalent to 1 mg/kg body weight of LCX001. At appropriate time intervals (5, 10, 30, 45, 60, 90, 120, 240 and 480 min), the animals were sacrificed and 1 mL blood samples withdrawn from the orbital sinus were collected in heparinized tubes. Fifty μL plasma was immediately separated by centrifugation, diluted with 200 μL methanol and stored at −20 °C until assay. Meanwhile, the brain was removed, weighed, homogenized and diluted with methanol to 1:5 (g/mL). The homogenates were also stored at −20 °C until assay. Internal standard (200 ng/mL) was added to the samples. The samples were vortexed for 3 min and then centrifuged at 9500 rpm for 15 min. […] Ten μL samples were analyzed by LC-MS/MS method as described.
The Cmax, AUC0-t, Tmax, MRT0-t and t1/2 were calculated by WinNonlin software (version 5.2.1, Pharsight, Mountain View, CA, USA). […]

[5] = Brain distribution of LCX001 after i.v. administration; format: in vivo, Kunming mice; conditions: mice; for AUC0-t: LCX001 in brain, single dose equivalent to 1 mg/kg LCX001, n = 3
Text: To further evaluate the possibility of prodrug 7e being transported across the BBB, the brain distribution of prodrug 7e and LCX001 after injection were detected at fixed time intervals. […] The AUC0-t for prodrug 7e was enhanced to 2.23 times that of LCX001. The MRT0-t was increased to 3.29 times that of LCX001. […] This agreed well with the fact that the “lock-in” effect and sustained release effect of the prodrug 7e could effectively delay the clearance of LCX001.
Mice were randomly divided into two groups, 27 in each group, for different sampling times and housed in one cage. Each animal was injected with 7e or LCX001 in 20% w/v hydroxypropyl-β-cyclodextrin and saline (0.45%) solution through the tail vein at a single dose equivalent to 1 mg/kg body weight of LCX001. At appropriate time intervals (5, 10, 30, 45, 60, 90, 120, 240 and 480 min), the animals were sacrificed and 1 mL blood samples withdrawn from the orbital sinus were collected in heparinized tubes. Fifty μL plasma was immediately separated by centrifugation, diluted with 200 μL methanol and stored at −20 °C until assay. Meanwhile, the brain was removed, weighed, homogenized and diluted with methanol to 1:5 (g/mL). The homogenates were also stored at −20 °C until assay. Internal standard (200 ng/mL) was added to the samples. The samples were vortexed for 3 min and then centrifuged at 9500 rpm for 15 min. Fifty μL supernatants were withdrawn, then 50 μL of water was added to each aliquot and vortexed. Ten μL samples were analyzed by LC-MS/MS method as described.
The Cmax, AUC0-t, Tmax, MRT0-t and t1/2 were calculated by WinNonlin software (version 5.2.1, Pharsight, Mountain View, CA, USA). Statistical evaluation was performed using analysis of variance followed by t-test. A value of p < 0.05 was considered significant.

[6] = tested on: damphetamine- stimulated locomotion; set-up: method as in earlier work; conditions: behavioral testing; cited from earlier work
[7] = tested on: field excitatory postsynaptic potential (EPSP) in the rat dentate gyrus; set-up: method as in earlier work; conditions: cited from earlier work

Row | melting point [°C] | half-life at 1.67 µg/mL [2] [min] | half-life at 1.67 µg/mL [3] [min] | Structure (SMILES) | Ke, pseudo-first order rate constant of disappearance [2] | Ke, pseudo-first order rate constant of disappearance [3] | other results
1 | – | – | – | O=C(c1ccc2nonc2c1)N1CCOCC1 [CX717] | – | – | Effect on opiate-induced respiratory depression [1]: positive effects
2 | 78.8 to 79.5 | 2.23 | 3.48 | CCSS/C(CCOC(=O)CCCC(=O)O[C@H]1CC[C@H](N(C)C(=O)c2ccc3nonc3c2)CC1)=C(/C)N(C)C=O [Compound 7a, S-3-(Ethyldisulfanyl)-4-(N-methylformamido)pent-3-en-1-yl((1R,4R)-4-(N-methylbenzo[c][1,2,5]oxadiazole-5-carboxamido)cyclohexyl) glutarate] | 31.1 min^−1 (×10^−2) | 19.9 min^−1 (×10^−2) | –
3 | 78 to 79.3 | 9.82 | 10.2 | CCCSS/C(CCOC(=O)CCCC(=O)O[C@H]1CC[C@H](N(C)C(=O)c2ccc3nonc3c2)CC1)=C(/C)N(C)C=O [Compound 7b, S-3-(Propyldisulfanyl)-4-(N-methylformamido)pent-3-en-1-yl((1R,4R)-4-(N-methylbenzo[c][1,2,5]oxadiazole-5-carboxamido)cyclohexyl) glutarate] | 7.06 min^−1 (×10^−2) | 6.82 min^−1 (×10^−2) | –
4 | 67.6 to 68.4 | 10.2 | 17.1 | CCCCSS/C(CCOC(=O)CCCC(=O)O[C@H]1CC[C@H](N(C)C(=O)c2ccc3nonc3c2)CC1)=C(/C)N(C)C=O [Compound 7c, S-3-(Butyldisulfanyl)-4-(N-methylformamido)pent-3-en-1-yl((1R,4R)-4-(N-methylbenzo[c][1,2,5]oxadiazole-5-carboxamido)cyclohexyl) glutarate] | 6.77 min^−1 (×10^−2) | 4.05 min^−1 (×10^−2) | –
5 | 69.3 to 70.3 | 15.4 | 10.9 | CCCCCSS/C(CCOC(=O)CCCC(=O)O[C@H]1CC[C@H](N(C)C(=O)c2ccc3nonc3c2)CC1)=C(/C)N(C)C=O [Compound 7d, S-3-(Amyldisulfanyl)-4-(N-methylformamido)pent-3-en-1-yl((1R,4R)-4-(N-methylbenzo[c][1,2,5]oxadiazole-5-carboxamido)cyclohexyl) glutarate] | 4.50 min^−1 (×10^−2) | 6.34 min^−1 (×10^−2) | –
6 | 72.9 to 73.8 | 15.5 | 12 | C/C(=C(\CCOC(=O)CCCC(=O)O[C@H]1CC[C@H](N(C)C(=O)c2ccc3nonc3c2)CC1)SSCc1ccccc1)N(C)C=O [Compound 7f, S-3-(Benzyldisulfanyl)-4-(N-methylformamido)pent-3-en-1-yl((1R,4R)-4-(N-methylbenzo[c][1,2,5]oxadiazole-5-carboxamido)cyclohexyl) glutarate] | 4.48 min^−1 (×10^−2) | 5.78 min^−1 (×10^−2) | –
7 | – | – | – | CN(C(=O)c1ccc2nonc2c1)[C@H]1CC[C@H](O)CC1 [LCX001] | – | – | Inhibition of d-amphetamine-stimulated locomotion [6]: 100%; Death Rate (opiate poisoned mice; iv 10 mg/kg): 20%; Increase in amplitude of the field EPSP [7]: 21%; AUC0-t [5]: 504.32 ± 204.71 ng·h/g

Row | Structure (SMILES) | melting point [°C] | half-life at 1.67 µg/mL [2] [min] | half-life at 1.67 µg/mL [3] [min] | Ke, pseudo-first order rate constant of disappearance [2] | Ke, pseudo-first order rate constant of disappearance [3] | other results
8 | C/C(=C(\CCOC(=O)CCCC(=O)O[C@H]1CC[C@H](N(C)C(=O)c2ccc3nonc3c2)CC1)SSCCC(C)C)N(C)C=O [Compound 7e, S-3-(Isoamyldisulfanyl)-4-(N-methylformamido)pent-3-en-1-yl((1R,4R)-4-(N-methylbenzo[c][1,2,5]oxadiazole-5-carboxamido)cyclohexyl) glutarate] | – | 16 | 18.8 | 4.34 min^−1 (×10^−2) | 3.69 min^−1 (×10^−2) | Required molar dose relative to LCX001 to achieve the same effect (opiate poisoned mice; 3 mg/kg 7e gave the same effect as 10 mg/kg LCX001 on reducing mortality): one eighth; Death Rate (opiate poisoned mice; iv 0.5 mg/kg): 50%; Death Rate (opiate poisoned mice; iv 1 mg/kg): 30%; Death Rate (opiate poisoned mice; iv 3 mg/kg): 20%; Death Rate (opiate poisoned mice; iv 10 mg/kg): 0%; Death Rate (opiate poisoned mice; iv 30 mg/kg): 0%; MRT of LCX001 in plasma, times that of LCX001 [4]: 0.77 times; AUC0-t [5]: 1125.49 ± 336.57 * h·ng/g; AUC0-t of LCX001 in brain, times that of LCX001 ([5]; brain): 2.23 times; MRT0-t of LCX001 in brain, times that of LCX001 ([5]; brain): 3.29 times
